In patent publication US5827715A, “Heat resistant maltose phosphorylase, process for preparation thereof, bacteria used for preparation thereof, and methods for using the enzyme” (Showa Sangyo Co., Ltd., priority 1995, dated 1998):
Like-named read-outs stand apart in the source and are kept apart here.

Tests used:
[1] = molecular target: T1, heat resistant maltose phosphorylase (Bacillus sp. RK-1, UniProt Q84IX5); assay: Inhibitor test on heat resistant maltose phosphorylase activity; assay type: biochemical; details: for activity at 1000 µM: read-out: Relative activity (%); for inhibition of the activity: 1 mM inhibitor, heat resistant maltose phosphorylase
Description: (§1) The enzymological properties of the heat resistant maltose phosphorylase of the invention are as follows. As the heat resistant maltose phosphorylase,one obtained in Example 1 and prepared from Bacillus sp. RK-1 was used.
(§2) In this connection, maltose phosphorylase activity was assayed according to the following method. An enzyme solution (0.4 ml), 0.06 ml of 0.5M potassium phosphate-citric acid buffer (pH 6.0), 0.6 ml of 2 w/v % maltose and 0.14 ml of distilled water were mixed, and reaction was carried out at 60° C. for 15 minutes and ceased by boiling for 10 minutes. Then, 0.02 ml of a sample was taken from the reaction-ceased solution, 3 ml of a reagent for glucose examination (Glucose CII-Test Wako; Wako Pure Chemical Industries, Ltd.) was added, reaction was carried at room temperature for 20 minutes, the absorbance at 505 nm was measured using a spectrophotometer, and the amount of glucose formed in the reaction solution was determined from the measured value. From the amount of the formed glucose, the amount of the enzyme necessitated to phosphorolyze 1 μmol of maltose in one minute is calculated, and was assumed to be 1 unit.

[2] = molecular target: T2, heat resistant trehalose phosphorylase (Geobacillus stearothermophilus, UniProt Q8GRC3); assay: biochemical; assay type: biochemical, Bacillus stearothermophilus SK-1; details: for activity at 1000 µM: read-out: Relative activity (%); for inhibition of the activity: 1 mM inhibitor, heat resistant trehalose phosphorylase
T2 construct: heat resistant trehalose phosphorylase which Bacillus stearothermophilus SK-1 found by the present inventors produces; made in house; host or cells: Bacillus stearothermophilus SK-1 (FERM BP-5594), the producing strain itself
Description: As the heat resistant maltose phosphorylase in the above process, there can be used the same ones as in the above process for preparation of β-glucose-1-phosphoric acid can be used. As the heat resistant trehalose phosphorylase, any one can be used so long as it can produce trehalose from maltose and phosphoric acid or a phosphate salt at one of the above reaction temperatures and at one of the above pH values, with the aid of the heat resistant maltose phosphorylase. […] The SK-1 strain was first deposited on Sep. 29, 1994 with National Institute of Bioscience and Human Technology, Agency of Industrial Science and Technology, the Ministry of International Trade and Industry, Japan under an accession number of FERM P-14567, and then transferred there to deposit according to Budapest Treaty on microorganisms on Jul. 17, 1996, and is assigned an accession number of FERM BP-5594. An example of preparation of the above heat resistant trehalose phosphorylase is shown in Example 4 (crude enzyme) and Reference example 1 (purified enzyme).
(§3) In this connection, trehalose phosphorylase activity was assayed by the following method. An enzyme solution (0.4 ml), 0.06 ml of 0.5M potassium phosphate-citric acid buffer (pH 6.0), 0.6 ml of 2 w/v % trehalose and 0.14 ml of distilled water were mixed, and reaction was carried out at 60° C. for 20 minutes and ceased by boiling for 10 minutes. Then, 0.02 ml of a sample was taken from the reaction-ceased solution, 3 ml of a reagent for glucose examination (Glucose CII-Test Wako; Wako Pure Chemical Industries, Ltd.) was added, reaction was carried out at room temperature for 20 minutes, the absorbance at 505 nm was measured using a spectrophotometer, and the amount of glucose formed in the reaction solution was determined from the measured value. As to the definition of the trehalose phosphorylase activity, the amount of the enzyme necessitated to phosphorolyze 1 μmol of trehalose in one minute under the above assay conditions was assumed to be 1 unit.

[3] = molecular target: T1, heat resistant maltose phosphorylase; assay: Substrate specificity of heat resistant maltose phosphorylase (phosphorolysis reaction, glucose formed); assay type: biochemical; parameters: Relative activity (%): concentration or dose not given beside the values; details: for Relative activity (%): each substance as substrate of phosphorolysis by heat resistant maltose phosphorylase, maltose = 100; for formation of glucose: phosphorolysis reaction with the substance as substrate, heat resistant maltose phosphorylase
Description: as §1, §2

[4] = molecular target: T2, heat resistant trehalose phosphorylase; assay: Substrate specificity of heat resistant trehalose phosphorylase (phosphorolysis reaction, glucose formed); assay type: biochemical, Bacillus stearothermophilus SK-1; parameters: Relative activity (%): concentration or dose not given beside the values; details: for Relative activity (%): each substance as substrate of phosphorolysis by heat resistant trehalose phosphorylase, trehalose = 100; for formation of glucose: phosphorolysis reaction with the substance as substrate, heat resistant trehalose phosphorylase
Description: As the heat resistant maltose phosphorylase in the above process, there can be used the same ones as in the above process for preparation of β-glucose-1-phosphoric acid can be used. As the heat resistant trehalose phosphorylase, any one can be used so long as it can produce trehalose from maltose and phosphoric acid or a phosphate salt at one of the above reaction temperatures and at one of the above pH values, with the aid of the heat resistant maltose phosphorylase. However, there can, preferably, be used heat resistant trehalose phosphorylase having an activity of 95% or more of the one untreated after treated in a buffer of pH 6.0, at one temperature of 50° to 65° C., preferably at one temperature of 55° to 65° C., further preferably at one temperature of 60° to 65° C., particularly preferably at 65° C., for 15 minutes. As an example of heat resistant trehalose phosphorylase having such a property, there can be mentioned heat resistant trehalose phosphorylase which Bacillus stearothermophilus SK-1 found by the present inventors produces. The SK-1 strain was first deposited on Sep. 29, 1994 with National Institute of Bioscience and Human Technology, Agency of Industrial Science and Technology, the Ministry of International Trade and Industry, Japan under an accession number of FERM P-14567, and then transferred there to deposit according to Budapest Treaty on microorganisms on Jul. 17, 1996, and is assigned an accession number of FERM BP-5594. An example of preparation of the above heat resistant trehalose phosphorylase is shown in Example 4 (crude enzyme) and Reference example 1 (purified enzyme). The enzymological properties of this purified enzyme are as follows.
as §3

[5] = maltose phosphorylase activity with 1 mM inhibitor, no addition = 100
[6] = trehalose phosphorylase activity with 1 mM inhibitor, no addition = 100

T2 sequence (Q8GRC3 whole entry, change not shown): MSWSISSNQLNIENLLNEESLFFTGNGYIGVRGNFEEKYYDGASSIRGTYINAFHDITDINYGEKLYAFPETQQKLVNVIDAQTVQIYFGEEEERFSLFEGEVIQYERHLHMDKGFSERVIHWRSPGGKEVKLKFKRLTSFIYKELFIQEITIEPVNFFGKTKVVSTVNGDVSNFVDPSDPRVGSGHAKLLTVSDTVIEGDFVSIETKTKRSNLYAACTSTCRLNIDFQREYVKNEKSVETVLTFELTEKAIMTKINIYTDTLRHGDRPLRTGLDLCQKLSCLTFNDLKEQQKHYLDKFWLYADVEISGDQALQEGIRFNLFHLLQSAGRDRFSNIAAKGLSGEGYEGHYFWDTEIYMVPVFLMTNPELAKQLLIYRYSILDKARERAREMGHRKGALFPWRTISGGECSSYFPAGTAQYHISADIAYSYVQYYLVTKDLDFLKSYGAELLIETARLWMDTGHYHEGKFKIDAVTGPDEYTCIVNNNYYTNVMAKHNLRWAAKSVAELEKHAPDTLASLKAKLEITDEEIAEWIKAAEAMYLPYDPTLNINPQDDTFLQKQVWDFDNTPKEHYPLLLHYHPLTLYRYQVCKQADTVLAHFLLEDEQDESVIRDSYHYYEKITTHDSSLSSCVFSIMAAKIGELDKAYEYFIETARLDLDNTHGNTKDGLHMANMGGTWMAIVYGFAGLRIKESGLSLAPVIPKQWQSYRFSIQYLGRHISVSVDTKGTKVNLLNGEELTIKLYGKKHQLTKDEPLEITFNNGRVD
T1 sequence (Q84IX5 entry or part of it, change not shown): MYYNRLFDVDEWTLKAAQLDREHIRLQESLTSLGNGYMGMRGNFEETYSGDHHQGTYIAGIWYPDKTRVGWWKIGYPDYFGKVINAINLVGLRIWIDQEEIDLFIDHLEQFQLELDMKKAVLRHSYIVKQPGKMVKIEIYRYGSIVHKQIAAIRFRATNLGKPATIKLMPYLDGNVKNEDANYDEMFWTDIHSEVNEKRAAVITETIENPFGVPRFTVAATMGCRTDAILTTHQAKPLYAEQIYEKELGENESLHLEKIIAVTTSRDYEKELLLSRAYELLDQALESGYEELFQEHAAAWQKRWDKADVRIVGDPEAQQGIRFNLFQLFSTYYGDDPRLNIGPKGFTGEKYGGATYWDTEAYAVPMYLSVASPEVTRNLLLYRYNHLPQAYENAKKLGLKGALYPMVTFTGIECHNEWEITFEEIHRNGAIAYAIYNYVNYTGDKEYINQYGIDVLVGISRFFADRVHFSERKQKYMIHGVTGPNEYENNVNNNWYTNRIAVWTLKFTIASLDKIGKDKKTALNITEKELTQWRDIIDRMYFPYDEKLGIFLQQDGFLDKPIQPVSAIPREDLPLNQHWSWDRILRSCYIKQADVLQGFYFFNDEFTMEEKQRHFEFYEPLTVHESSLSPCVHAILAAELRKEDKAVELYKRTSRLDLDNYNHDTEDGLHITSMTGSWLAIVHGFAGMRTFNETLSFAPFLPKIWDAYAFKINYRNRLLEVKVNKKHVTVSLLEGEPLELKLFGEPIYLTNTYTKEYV

Molecule	Relative activity (%) [1, 5] [%]	Relative activity (%) [2, 6] [%]	Relative activity (%) [3] [%]	Relative activity (%) [4] [%]	further results
O[C@H](CS)[C@H](O)CS (racemic) [DTT, Dithiothreitol]					activity at 1000 µM [1, 5]: 101%; activity at 1000 µM [2, 6]: 86%
[Ba+2].[OH-].[OH-] [Ba (OH)2]	100	106			
[Ca+2].[Cl-].[Cl-] [CaCl2]	101	102			
OC[C@H]1O[C@@H](O[C@H]2[C@H](O)[C@@H](O)C(O)O[C@@H]2CO)[C@H](O)[C@@H](O)[C@@H]1O (stereo partly drawn) [Cellobiose]			0	2	formation of glucose [3]: scarcely observed; formation of glucose [4]: scarcely observed
O=S(=O)([O-])[O-].[Cu+2] [CuSO4]	91	89			
O=[N+]([O-])c1ccc(O[C@H]2O[C@H](CO)[C@@H](O)[C@H](O)[C@H]2O)cc1 [D - glucosideyl - α, p-nitrophenyl-α-D-glucoside]			0	2	formation of glucose [3]: scarcely observed; formation of glucose [4]: scarcely observed
O=[N+]([O-])c1ccc(O[C@@H]2O[C@H](CO)[C@@H](O)[C@H](O)[C@H]2O)cc1 [D - glucosideyl - β, p-nitrophenyl-β-D-glucoside]			0	2	formation of glucose [3]: scarcely observed; formation of glucose [4]: scarcely observed
O=C(O)CN(CCN(CC(=O)O)CC(=O)O)CC(=O)O [EDTA.2Na]					activity at 1000 µM [1]: 100%
O=C(O)CN(CCN(CC(=O)O)CC(=O)O)CC(=O)O [EDTA]					activity at 1000 µM [2]: 99%
[Cl][Fe][Cl] [FeCl2]	94	96			
OC[C@H]1O[C@@H](OC[C@H]2OC(O)[C@H](O)[C@@H](O)[C@@H]2O)[C@H](O)[C@@H](O)[C@@H]1O (stereo partly drawn) [Gentiobiose]			2		
[Cl][Hg][Cl] [HgCl2]	1	1			inhibition of the activity [1]: 99%; inhibition of the activity [2]: 99%
OC[C@H]1O[C@H](OC[C@H]2OC(O)[C@H](O)[C@@H](O)[C@@H]2O)[C@H](O)[C@@H](O)[C@@H]1O (stereo partly drawn) [Isomaltose]			2	3	formation of glucose [3]: scarcely observed; formation of glucose [4]: scarcely observed
OC[C@H]1O[C@@H](O[C@H]2[C@H](O)[C@@H](O)C(O)O[C@@H]2CO)[C@H](O)[C@@H](O)[C@H]1O (stereo partly drawn) [Lactose]			0		
OC[C@H]1O[C@H](O[C@H]2[C@H](O)[C@@H](O)[C@H](O)O[C@@H]2CO)[C@H](O)[C@@H](O)[C@@H]1O [Maltose]			100	1	formation of glucose [4]: scarcely observed
OCCS [Mercaptoethanol]					activity at 1000 µM [1, 5]: 94%; activity at 1000 µM [2, 6]: 96%
[Cl-].[Cl-].[Mg+2] [MgCl2]	100	103			
O=S(=O)([O-])[O-].[Mn+2] [MnSO4]	111	108			
OC[C@H]1O[C@@H](O[C@H]2O[C@H](CO)[C@@H](O)[C@H](O)[C@H]2O)[C@H](O)[C@@H](O)[C@@H]1O [Neotrehalose]			0	1	formation of glucose [3]: scarcely observed; formation of glucose [4]: scarcely observed
O=C(O)c1cc[c]([Hg][Cl])cc1 [PCMB, p (Chloromercuri) benzoic acid]	20	0			
CC(=O)[O-].CC(=O)[O-].[Pb+2] [Pb (CH3 COO)2]	99	93			
OC[C@H]1O[C@@](CO)(O[C@H]2O[C@H](CO)[C@@H](O)[C@H](O)[C@H]2O)[C@@H](O)[C@@H]1O [Sucrose]			0	1	formation of glucose [3]: scarcely observed; formation of glucose [4]: scarcely observed
OC[C@H]1O[C@H](O[C@H]2O[C@H](CO)[C@@H](O)[C@H](O)[C@H]2O)[C@H](O)[C@@H](O)[C@@H]1O [Trehalose]			0	100	formation of glucose [3]: scarcely observed
O=S(=O)([O-])[O-].[Zn+2] [ZnSO4]	63	20			inhibition of the activity [1]: 37%; inhibition of the activity [2]: 80%
Soluble starch			2		
